Data: the NIST ThermoML archive (doi:10.1016/j.jct.2008.02.019)

Tests used:
[1] = xn = mol fraction of the nth substance listed; conditions: 101 kPa, Liquid
[2] = excess molar enthalpy (molar enthalpy of mixing); xn = mol fraction of the nth substance listed; conditions: 101 kPa, Liquid, Flow calorimetry

CCCC[n+]1ccc(C)cc1.F[B-](F)(F)F [1-butyl-4-methylpyridinium tetrafluoroborate] + CCO
Conditions	excess molar enthalpy [kcal/mol]	mass density [kg/m3]
[1], 298.15 K, x1 = 0.0523	–	852
[1], 298.15 K, x1 = 0.1023	–	901.7
[1], 298.15 K, x1 = 0.1469	–	938.3
[1], 298.15 K, x1 = 0.2023	–	976
[1], 298.15 K, x1 = 0.307	–	1030.5
[1], 298.15 K, x1 = 0.3801	–	1059.5
[1], 298.15 K, x1 = 0.4445	–	1080.8
[1], 298.15 K, x1 = 0.5069	–	1098.6
[1], 298.15 K, x1 = 0.5553	–	1110.8
[1], 298.15 K, x1 = 0.6045	–	1121.8
[1], 298.15 K, x1 = 0.6639	–	1134.2
[1], 298.15 K, x1 = 0.7127	–	1142.8
[1], 298.15 K, x1 = 0.7447	–	1148.4
[1], 298.15 K, x1 = 0.7964	–	1156.8
[1], 298.15 K, x1 = 0.8673	–	1167
[1], 298.15 K, x1 = 0.9171	–	1173.6
[1], 318.15 K, x1 = 0.0464	–	827.9
[1], 318.15 K, x1 = 0.0965	–	881.1
[1], 318.15 K, x1 = 0.1445	–	921.6
[1], 318.15 K, x1 = 0.2494	–	987.9
[1], 318.15 K, x1 = 0.2968	–	1011
[1], 318.15 K, x1 = 0.3855	–	1046.8
[1], 318.15 K, x1 = 0.4947	–	1080.9
[1], 318.15 K, x1 = 0.5877	–	1103.6
[1], 318.15 K, x1 = 0.6821	–	1123.2
[1], 318.15 K, x1 = 0.7798	–	1139.8
[1], 318.15 K, x1 = 0.8267	–	1146.8
[1], 318.15 K, x1 = 0.8776	–	1153.8
[2], 298.15 K, x1 = 0.0209	0.0715	–
[2], 298.15 K, x1 = 0.0461	0.149	–
[2], 298.15 K, x1 = 0.0751	0.224	–
[2], 298.15 K, x1 = 0.1068	0.285	–
[2], 298.15 K, x1 = 0.1406	0.358	–
[2], 298.15 K, x1 = 0.1751	0.419	–
[2], 298.15 K, x1 = 0.2104	0.481	–
[2], 298.15 K, x1 = 0.246	0.527	–
[2], 298.15 K, x1 = 0.2661	0.554	–
[2], 298.15 K, x1 = 0.3	0.571	–
[2], 298.15 K, x1 = 0.3402	0.58	–
[2], 298.15 K, x1 = 0.3855	0.57	–
[2], 298.15 K, x1 = 0.4296	0.545	–
[2], 298.15 K, x1 = 0.4879	0.505	–
[2], 298.15 K, x1 = 0.5522	0.455	–
[2], 298.15 K, x1 = 0.6225	0.389	–
[2], 298.15 K, x1 = 0.712	0.318	–
[2], 298.15 K, x1 = 0.8071	0.223	–
[2], 298.15 K, x1 = 0.903	0.12	–
[2], 318.15 K, x1 = 0.0162	0.0906	–
[2], 318.16 K, x1 = 0.0465	0.211	–
[2], 318.17 K, x1 = 0.075	0.315	–
[2], 318.18 K, x1 = 0.108	0.408	–
[2], 318.19 K, x1 = 0.1427	0.495	–
[2], 318.2 K, x1 = 0.178	0.566	–
[2], 318.21 K, x1 = 0.2091	0.623	–
[2], 318.22 K, x1 = 0.2364	0.658	–
[2], 318.23 K, x1 = 0.2498	0.683	–
[2], 318.24 K, x1 = 0.2824	0.708	–
[2], 318.25 K, x1 = 0.3237	0.718	–
[2], 318.26 K, x1 = 0.3722	0.717	–
[2], 318.27 K, x1 = 0.4286	0.697	–
[2], 318.28 K, x1 = 0.4859	0.664	–
[2], 318.29 K, x1 = 0.5506	0.618	–
[2], 318.3 K, x1 = 0.6196	0.558	–
[2], 318.31 K, x1 = 0.6923	0.483	–
[2], 318.32 K, x1 = 0.7625	0.404	–
[2], 318.33 K, x1 = 0.8348	0.315	–
[2], 318.34 K, x1 = 0.9014	0.213	–
[2], 318.35 K, x1 = 0.9592	0.102	–
